US20040175448A1, “Pharmaceutical compositions” (Mars, Incorporated, priority 1994, published 2004)

Experiment: Rancimat oxidative stability test of peanut oil
Conditions: Rancimat 100° C., 20 cc/min air, average of duplicate
Text: The procedures described in Examples 1, 2 and 3 were used to prepare cocoa extracts which were manipulated further to produce two fractions from gel permeation chromatography. These two fractions are actually combined fractions A through C, and D and E (See FIG. 1) whose antioxidant properties were compared against the synthetic antioxidants BHA and BHT.
Peanut Oil was pressed from unroasted peanuts after the skins were removed. Each test compound was spiked into the oil at two levels about 100 ppm and about 20 ppm, with the actual levels given in Table 7.50 μL of methanol solubilized antioxidant was added to each sample to aid in dispersion of the antioxidant. A control sample was prepared with 50 μL of methanol containing no antioxidant.
The samples were evaluated in duplicate, for oxidative stability using the Rancimat stability test at 100° C. and 20 cc/min of air. Experimental parameters were chosen to match those used with the Active Oxygen Method (AOM) or Swift Stability Test (Van Oosten et al., 1981). Results are reported in Table 8 as hours required to reach a peroxide level of 100 meq.

[1] = 20 ppm (actual 20-24 ppm, Table 7)
[2] = 100 ppm (actual 100-120 ppm, Table 7)

Row | Compound | Oxidative stability of peanut oil: hours required to reach a peroxide level of 100 meq [1] | Oxidative stability of peanut oil: hours required to reach a peroxide level of 100 meq [2]
1 | COc1ccc(O)c(C(C)(C)C)c1 [BHA, Butylated Hydroxyanisole] | 13.5 ± 2.1 h | 14.0 ± 1.4 h
2 | Cc1cc(C(C)(C)C)c(O)c(C(C)(C)C)c1 [BHT, Butylated Hydroxytoluene] | 16.5 ± 2.1 h | 12.5 ± 2.1 h
